{"source": "patent US9133237B2", "about": "“Cyclic peptides with an anti-parasitic activity” (priority 2009, dated 2015)", "key": {"[1]": {"system": "cysts (bradyzoite form) of murine brains", "experiment": "ex vivo treatment of cysts of murine brains, re-inoculated intraperitoneally to mice", "type": "in vivo, Toxoplasma gondii", "settings": "cysts treated ex vivo at 200 nM for 7 days, Figure 3", "experimental": "The cyclic peptide (IV′f) was then tested on cysts (bradyzoite form) of murine brains ex vivo at 200 nM (Figure 3). The cysts after treatment for 7 days with the cyclic peptide (IV′f) were re-inoculated intraperitonally to the mice."}, "[2]": {"system": "MCF-7 cancer cells (breast cancer)", "type": "cell-based", "experimental": "(§1) The synthesized cyclic peptides were subject to tests in vitro on human fibroblasts infected by Toxoplasma gondii (Toxo), on non-infected human fibroblasts (HFF) and on HeLa cancer cells (cervical cancer) and MCF-7 cancer cells (breast cancer). Their respective efficiencies were tested at 90 nM as a preliminary test. The results are illustrated in Figure 1."}, "[3]": {"system": "HeLa cancer cells (cervical cancer)", "type": "cell-based", "experimental": "as §1"}, "[4]": {"system": "non-infected human fibroblasts (HFF)", "type": "cell-based", "experimental": "as §1"}, "Toxoplasma gondii": {"system": "Toxoplasma gondii", "type": "cell-based", "experimental": "as §1"}}}
{"smiles": "C[C@@H](O)C(=O)CCCCC[C@@H]1NC(=O)[C@H]2CCCN2C(=O)[C@H](Cc2ccccc2)NC(=O)C(C)(C)NC1=O", "note": "[(IV′f), (3S,9S,14aR)-9-benzyl-3-((R)-7-hydroxy-6-oxooctyl)-6,6-dimethyldecahydropyrrolo[1,2-a][1,4,7,10]tetraazacyclododecine-1,4,7,10-tetraone]", "values": [{"measurement": "cysts in mice after injection of treated cysts", "setting": "[1]", "value": "do not exhibit any cyst"}, {"measurement": "EC50", "setting": "[2]", "value": 533, "unit": "nM"}, {"measurement": "EC50", "setting": "[3]", "value": 474, "unit": "nM"}, {"measurement": "EC90", "setting": "[3]", "value": 1010, "unit": "nM"}, {"measurement": "EC50", "setting": "[4]", "value": 647, "unit": "nM"}, {"measurement": "EC90", "setting": "[4]", "value": 4110, "unit": "nM"}, {"measurement": "EC50", "setting": "Toxoplasma gondii", "value": 28.6, "unit": "nM"}, {"measurement": "EC90", "setting": "Toxoplasma gondii", "value": 79.7, "unit": "nM"}, {"measurement": "efficiency in preliminary test", "setting": "Toxoplasma gondii; 90 nM, Figure 1", "value": "interesting preliminary results"}, {"measurement": "activity compared with apicidin", "setting": "Toxoplasma gondii; Figure 2", "value": "activity close to that of apicidin"}, {"measurement": "effectiveness", "setting": "Toxoplasma gondii; Figure 2", "value": "very good effectiveness, of the order of the nanomolar"}, {"measurement": "efficiency compared with pyrimethamine", "setting": "Toxoplasma gondii; Figure 2", "value": "much greater efficiency relatively to pyrimethamine"}]}
